Measurements reported in patent EP0049683A2, “Imidazo-rifamycines, process for their preparation, pharmaceutical preparations containing them and their use” (CIBA-GEIGY AG, priority 1980, dated 1982).
Converted amounts (≈) assume the structure as drawn.

Key:
Assay in all cases: Agar dilution MIC in DST agar (Ericsson and Sherris)
Format in all cases: cell-based
[1] = tested on: Staphylococcus aureus 10B; conditions: in vitro; for MIC: Staphylococcus aureus, 10B, read-out: MIC Staph. 10B
Text: (§1) Die antibiotische Aktivität der Testverbindungen in vitro wurde durch die Agarverdünnungsmethode nach Ericsson, H.M., und Sherris, S.C., 1971, Acta Path. Microb. Scand. Section B, Suppl. No. 217, Bd. 1-90, in DST Agara ermittelt. Die gefundenen, das Wachstum der Testorganismen noch hemmenden Minimalkonzentrationen (MIC = minimum inhibiting concentrations) werden in Mikrogramm pro Milliliter (µg/ml) für die geprüften Verbindungen in der Tabelle 1 angegeben.

Escherichia coli 2018 = conditions: for MIC: Escherichia coli, 2018, in vitro, read-out: MIC Esch. 2018; for MIC Esch. 2018: in vitro
Text: as §1

[2] = tested on: Salmonella Typhimurium 277; conditions: in vitro; for MIC: Salmonella enterica, TYPHIMURIUM, read-out: MIC Salm. 277
Text: as §1

[3] = tested on: Staphylococcus aureus 2999; conditions: for MIC: Staphylococcus aureus, 2999, in vitro, read-out: MIC Staph. 2999; for MIC Staph. 2999: in vitro
Text: as §1

Proteus morganii 2359 = conditions: for MIC: Morganella morganii, 2359, in vitro, read-out: MIC Prot. 2359; for MIC Prot. 2359: in vitro
Text: as §1

Proteus morganii 1518 = conditions: for MIC: Morganella morganii, 1518, in vitro, read-out: MIC Prot. 1518; for MIC Prot. 1518: in vitro
Text: as §1

[4] = tested on: Pseudomonas aeruginosa K 799/61; conditions: for MIC: Pseudomonas aeruginosa, K799/61, read-out: MIC Pseu. 799; for MIC Pseu. 799: in vitro, agar dilution, DST agar
Text: as §1

Escherichia coli 205 = conditions: for MIC: Escherichia coli, 205, in vitro, read-out: MIC Esch. 205; for MIC Esch. 205: in vitro
Text: as §1

Compound	MIC [1]	MIC (Escherichia coli 2018)	MIC [2]	MIC [3]	MIC (Proteus morganii 2359)	MIC (Proteus morganii 1518)	MIC [4]	MIC (Escherichia coli 205)	MIC Staph. 10B [1]	MIC Esch. 2018 (Escherichia coli 2018)	MIC Salm. 277 [2]	MIC Staph. 2999 [3]	MIC Prot. 2359 (Proteus morganii 2359)	MIC Prot. 1518 (Proteus morganii 1518)	MIC Pseu. 799 [4]	MIC Esch. 205 (Escherichia coli 205)
CO[C@H]1/C=C/O[C@@]2(C)Oc3c(C)c(O)c4c(O)c(c5[nH]c(N(C)CCN(C)C)nc5c4c3C2=O)NC(=O)/C(C)=C\C=C\[C@H](C)[C@H](O)[C@@H](C)[C@@H](O)[C@@H](C)[C@H](OC(C)=O)[C@@H]1C [Verbindung 17, 4-[N-Methyl-N-(2-dimethylaminoethyl)-amino]-imidazolo-[4,5-c]rifamycin SV]	0.005 µg/mL (≈ 0.00608 µM)	64 µg/mL (≈ 77.9 µM)	64 µg/mL (≈ 77.9 µM)	0.005 µg/mL (≈ 0.00608 µM)	32 µg/mL (≈ 38.9 µM)	64 µg/mL (≈ 77.9 µM)	64 µg/mL (≈ 77.9 µM)	32 µg/mL (≈ 38.9 µM)								
4-[4-(2-Tetrahydrofurylmethyl)-piperazinyl]-imidazolo-[4,5-c]rifamycin SV [Verbindung 61]									0.005 µg/mL	4 µg/mL	32 µg/mL	0.005 µg/mL	4 µg/mL	4 µg/mL	32 µg/mL	16 µg/mL
4-[4-(2-Methoxyethyl)-piperazinyl]-imidazolo[4,5-c]rifamycin SV [Verbindung 63]									0.01 µg/mL	8 µg/mL	32 µg/mL	0.01 µg/mL	8 µg/mL	8 µg/mL	32 µg/mL	16 µg/mL
CO[C@H]1/C=C/O[C@@]2(C)Oc3c(C)c(O)c4c(O)c(c5[nH]c(N6CCN(CC(C)=C(C)C)CC6)nc5c4c3C2=O)NC(=O)/C(C)=C\C=C\[C@H](C)[C@H](O)[C@@H](C)[C@@H](O)[C@@H](C)[C@H](OC(C)=O)[C@@H]1C [Verbindung 48]	0.001 µg/mL (≈ 0.00113 µM)	8 µg/mL (≈ 9.01 µM)	32 µg/mL (≈ 36 µM)	0.001 µg/mL (≈ 0.00113 µM)	8 µg/mL (≈ 9.01 µM)	8 µg/mL (≈ 9.01 µM)	32 µg/mL (≈ 36 µM)	32 µg/mL (≈ 36 µM)								
CO[C@H]1/C=C/O[C@@]2(C)Oc3c(C)c(O)c4c(O)c(c5nc(N6CCN(c7ccccn7)CC6)[nH]c5c4c3C2=O)NC(=O)/C(C)=C\C=C\[C@H](C)[C@H](O)[C@@H](C)[C@@H](O)[C@@H](C)[C@H](OC(C)=O)[C@@H]1C [Verbindung 59, 4-[4-(2-Pyridyl)-piperazinyl]-imidazolo[4,5-c]rifamycin SV]	0.01 µg/mL (≈ 0.0113 µM)	8 µg/mL (≈ 9.06 µM)	32 µg/mL (≈ 36.2 µM)	0.01 µg/mL (≈ 0.0113 µM)	8 µg/mL (≈ 9.06 µM)	2 µg/mL (≈ 2.26 µM)	8 µg/mL (≈ 9.06 µM)	8 µg/mL (≈ 9.06 µM)								
COC1C=COC2(C)Oc3c(C)c(O)c4c(O)c(c5nc(N(C)C(C)C)[nH]c5c4c3C2=O)NC(=O)C(C)=CC=CC(C)C(O)C(C)C(O)C(C)C(OC(C)=O)C1C (stereo not drawn) [Verbindung 8, 4-(N-Isopropyl-N-methylamino)-imidazolo[4,5-c]rifamycin SV]	0.01 µg/mL (≈ 0.0126 µM)	8 µg/mL (≈ 10.1 µM)	32 µg/mL (≈ 40.4 µM)	0.01 µg/mL (≈ 0.0126 µM)	8 µg/mL (≈ 10.1 µM)	8 µg/mL (≈ 10.1 µM)	8 µg/mL (≈ 10.1 µM)	8 µg/mL (≈ 10.1 µM)								
4-(N-Benzyl-N-methylamino)-imidazolo[4,5-c]rifamycin SV [Verbindung 12]									0.001 µg/mL	8 µg/mL	32 µg/mL	0.001 µg/mL	8 µg/mL	1 µg/mL	8 µg/mL	8 µg/mL
4-(3-Diethylaminocarbonyl-1-piperidyl)-imidazolo[4,5-c]-rifamycin SV [Verbindung 26]									0.05 µg/mL	32 µg/mL	84 µg/mL	0.01 µg/mL	16 µg/mL	16 µg/mL	16 µg/mL	16 µg/mL
CO[C@H]1/C=C/O[C@@]2(C)Oc3c(C)c(O)c4c(O)c(c5[nH]c(N(C)C6CCN(C)CC6)nc5c4c3C2=O)NC(=O)/C(C)=C\C=C\[C@H](C)[C@H](O)[C@@H](C)[C@@H](O)[C@@H](C)[C@H](OC(C)=O)[C@@H]1C [Verbindung 13]	0.05 µg/mL (≈ 0.059 µM)	8 µg/mL (≈ 9.43 µM)	32 µg/mL (≈ 37.7 µM)	0.05 µg/mL (≈ 0.059 µM)	16 µg/mL (≈ 18.9 µM)	16 µg/mL (≈ 18.9 µM)	8 µg/mL (≈ 9.43 µM)	8 µg/mL (≈ 9.43 µM)								
CO[C@H]1/C=C/O[C@@]2(C)Oc3c(C)c(O)c4c(O)c(c5nc(N6CCN(c7cccc(C(F)(F)F)c7)CC6)[nH]c5c4c3C2=O)NC(=O)/C(C)=C\C=C\[C@H](C)[C@H](O)[C@@H](C)[C@@H](O)[C@@H](C)[C@H](OC(C)=O)[C@@H]1C [Verbindung 53, 4-[4-(3-Trifluormethylphenyl)-piperazinyl]-imidazolo-[4,5-c]rifamycin SV]	0.01 µg/mL (≈ 0.0105 µM)	8 µg/mL (≈ 8.42 µM)	32 µg/mL (≈ 33.7 µM)	0.01 µg/mL (≈ 0.0105 µM)	8 µg/mL (≈ 8.42 µM)	2 µg/mL (≈ 2.11 µM)	32 µg/mL (≈ 33.7 µM)	8 µg/mL (≈ 8.42 µM)								
4-[4-(2,2-Dimethoxyethyl)-piperazinyl]-imidazolo- [4,5-c]rifamycin SV [Verbindung 65]									0.05 µg/mL	32 µg/mL	128 µg/mL	0.01 µg/mL	32 µg/mL	32 µg/mL	32 µg/mL	32 µg/mL
4-{4-[2-(1,3- Dioxolan-2-yl)-ethyl]-piperazinyl}-imidazolo-[4,5-c]rifamycin SV [Verbindung 62]									0.02 µg/mL	32 µg/mL	128 µg/mL	0.02 µg/mL	8 µg/mL	8 µg/mL	32 µg/mL	32 µg/mL
CCCN(CCC)c1nc2c3c(O)c4c(O)c(C)c5c(c4c2[nH]1)C(=O)C(C)(OC=CC(OC)C(C)C(OC(C)=O)C(C)C(O)C(C)C(O)C(C)C=CC=C(C)C(=O)N3)O5 (stereo not drawn) [Verbindung 7, 4-Dipropylamino-imidazolo[4,5-c]rifamycin SV]	0.005 µg/mL (≈ 0.00609 µM)	8 µg/mL (≈ 9.74 µM)	16 µg/mL (≈ 19.5 µM)	0.005 µg/mL (≈ 0.00609 µM)	8 µg/mL (≈ 9.74 µM)	8 µg/mL (≈ 9.74 µM)	8 µg/mL (≈ 9.74 µM)	8 µg/mL (≈ 9.74 µM)								
CO[C@H]1/C=C/O[C@@]2(C)Oc3c(C)c(O)c4c(O)c(c5nc(N6CCN(Cc7ccccn7)CC6)[nH]c5c4c3C2=O)NC(=O)/C(C)=C\C=C\[C@H](C)[C@H](O)[C@@H](C)[C@@H](O)[C@@H](C)[C@H](OC(C)=O)[C@@H]1C [Verbindung 60, 4-[4-(2-Pyridylmethyl)-piperazinyl]-imidazolo[4,5-c]-rifamycin SV]	0.02 µg/mL (≈ 0.0223 µM)	32 µg/mL (≈ 35.7 µM)	128 µg/mL (≈ 143 µM)	0.02 µg/mL (≈ 0.0223 µM)	32 µg/mL (≈ 35.7 µM)	32 µg/mL (≈ 35.7 µM)	64 µg/mL (≈ 71.3 µM)	32 µg/mL (≈ 35.7 µM)								
CCC(C)CN1CCN(c2nc3c([nH]2)c2c(O)c4c(O)c(C)c5c(c43)C(=O)[C@@](C)(O/C=C/[C@H](OC)[C@@H](C)[C@@H](OC(C)=O)[C@H](C)[C@H](O)[C@H](C)[C@@H](O)[C@@H](C)/C=C/C=C(/C)C(=O)N2)O5)CC1 (stereo partly drawn) [Verbindung 38, 4-[4-(2-Methyl-butyl)piperazinyl]-imidazolo[4,5-c]rifamycin SV]	0.005 µg/mL (≈ 0.00571 µM)	2 µg/mL (≈ 2.28 µM)	16 µg/mL (≈ 18.3 µM)	0.005 µg/mL (≈ 0.00571 µM)	2 µg/mL (≈ 2.28 µM)	4 µg/mL (≈ 4.57 µM)	16 µg/mL (≈ 18.3 µM)	4 µg/mL (≈ 4.57 µM)								
4-[4-(2-Ethoxyethyl)-piperazinyl]-imidazolo[4,5-c] rifamycin SV [Verbindung 64]									0.01 µg/mL	16 µg/mL	64 µg/mL	0.005 µg/mL	16 µg/mL	16 µg/mL	16 µg/mL	16 µg/mL
CO[C@H]1/C=C/O[C@@]2(C)Oc3c(C)c(O)c4c(O)c(c5nc(N6CCN(CC7CCCC7)CC6)[nH]c5c4c3C2=O)NC(=O)/C(C)=C\C=C\[C@H](C)[C@H](O)[C@@H](C)[C@@H](O)[C@@H](C)[C@H](OC(C)=O)[C@@H]1C [Verbindung 55, 4-(4-Cyclopentylmethylpiperazinyl)-imidazolo[4,5-c]-rifamycin SV]	0.01 µg/mL (≈ 0.0113 µM)	1 µg/mL (≈ 1.13 µM)	32 µg/mL (≈ 36 µM)	0.001 µg/mL (≈ 0.00113 µM)	2 µg/mL (≈ 2.25 µM)	2 µg/mL (≈ 2.25 µM)	32 µg/mL (≈ 36 µM)	8 µg/mL (≈ 9.01 µM)								
CCOC(=O)C1CCN(c2nc3c([nH]2)c2c(O)c4c(O)c(C)c5c(c43)C(=O)[C@@](C)(O/C=C/[C@H](OC)[C@@H](C)[C@@H](OC(C)=O)[C@H](C)[C@H](O)[C@H](C)[C@@H](O)[C@@H](C)/C=C/C=C(/C)C(=O)N2)O5)CC1 [Verbindung 22, 4-(4-Ethoxycarbonyl-1-piperidyl)-imidazolo[4,5-c]rifamycin SV]	0.005 µg/mL (≈ 0.0057 µM)	8 µg/mL (≈ 9.12 µM)	32 µg/mL (≈ 36.5 µM)	0.005 µg/mL (≈ 0.0057 µM)	4 µg/mL (≈ 4.56 µM)	4 µg/mL (≈ 4.56 µM)	16 µg/mL (≈ 18.2 µM)	16 µg/mL (≈ 18.2 µM)								
